# Measured values reported in patent US20040219208A1, “Sustained-release medicines” (priority 2001, published 2004).
# Assay: Drug concentration in plasma of rat after subcutaneous administration of microcapsule
# Assay type: in vivo
# Conditions: sc, 25 mg microcapsule of Example 1, subcutaneous at rear neck, 9 week old male SD rat, plasma from tail vein, n = 4; for concentration at 1 week: after 1 week; for concentration at 2 weeks: after 2 weeks; for concentration at 3 weeks: after 3 weeks; for concentration at 1 day: after 1 day
# Method: 25 mg of the microcapsule obtained in Example 1 was dispersed in 0.1 mL of dispersing medium (a solution in which 5 mg of sodium carboxymethylcellulose, 1 mg of Polysorbate 80 and 50 mg of mannitol were dissolved in 1 mL of distilled water), and this was subcutaneously administered to a 9 week old male SD rat with 23G injection needle at a rear neck part. The concentrations of drugs in plasma obtained by taking from a tail vein with time after administration were measured.
SMILES,concentration at 1 week [ng/mL],concentration at 2 weeks [ng/mL],concentration at 3 weeks [ng/mL],concentration at 1 day [ng/mL]
"CCOc1nc2cccc(C(=O)O)c2n1Cc1ccc(-c2ccccc2-c2nnn[nH]2)cc1 [Compound B, 2-ethoxy-1-[[2′-(1H-tetrazol-5-yl)biphenyl-4-yl]methyl]benzimidazole-7-carboxylic acid]",238,94,4,170
CCc1ccc(CCOc2ccc(CC3SC(=O)NC3=O)cc2)nc1 (centres unmarked) [actos],226,155,30,313
